From PMC9596850, “Tonsillar Microbiome‐Derived Lantibiotics Induce Structural Changes of IL‐6 and IL‐21 Receptors and Modulate Host Immunity” (Advanced Science, 2022)
Peptide text beside a SMILES is read from it.

Columns and labels:
[1] = molecular target: T1, murine IL‐21R (Mus musculus, UniProt Q9JHX3); assay: SPR binding to immobilized murine IL‐21R
T1 construct: Fc region of human IgG1 (C); purchased Sino Biological
Procedure: The binding affinities of salivaricins to IL‐6Rα or IL‐21R were assayed using the Biacore 8K instrument (GE Healthcare). Murine IL‐6Rα (20 nM, abcam) or IL‐21R ([…], Sino Biological) were immobilized on a CM5 sensor chip using standard amine‐coupling at 25 °C with PBS‐P running buffer (GE Healthcare), as described previously.^[ [39] ^] […] Regeneration was achieved by extended washing with NaOH (5 mm) after each sample injection. The dissociation constants (KD) of salivaricins were obtained by fitting the data sets to steady‐state affinity model using Biacore 8K Evaluation Software.

[2] = tested on: collagen‐induced arthritis (CIA) model mice; assay: Collagen‐induced arthritis (CIA) mice, prophylactic regimen; assay type: in vivo, DBA/1 mice; conditions: prophylactic administration in CIA mice
Procedure: Male DBA/1 mice (6–8 weeks old) were purchased from Huafukang Co. Ltd. (Beijing, China) and fed under specific pathogen‐free conditions. All experiments were carried out in accordance with guidelines prescribed by the Animal Care and Use Committee of Peking University People's Hospital (2019PHE047). CIA induction was established by following a previously published protocol.^[ [41] ^] Briefly, DBA/1 mice were immunized intradermally at the base of the tail with 200 µg of bovine type II collagen (CII, Chondrex) emulsified in complete Freund's adjuvant (Sigma‐Aldrich, St Louis, MO, USA) in equal volumes. Three weeks later, a booster was delivered using 100 µg CII emulsified in Freund's incomplete adjuvant. Mice were monitored for signs of arthritis after the booster immunization. Clinical score was assessed by using the following system as detailed previously:^[ [41] ^] […]
The paws from each mouse were collected and fixed in 4% paraformaldehyde (PFA) for 48 h, then scanned using a Micro‐CT scanner (Quantum FX, Caliper, USA). […] A microscopic assessment of sagittal sections was performed and histopathological changes were scored based on the following previously reported parameters:^[ [42] ^] […]

[3] = Table S4, immobilized mIL-21R, Steady state affinity model

T1 sequence (Q9JHX3 20-529): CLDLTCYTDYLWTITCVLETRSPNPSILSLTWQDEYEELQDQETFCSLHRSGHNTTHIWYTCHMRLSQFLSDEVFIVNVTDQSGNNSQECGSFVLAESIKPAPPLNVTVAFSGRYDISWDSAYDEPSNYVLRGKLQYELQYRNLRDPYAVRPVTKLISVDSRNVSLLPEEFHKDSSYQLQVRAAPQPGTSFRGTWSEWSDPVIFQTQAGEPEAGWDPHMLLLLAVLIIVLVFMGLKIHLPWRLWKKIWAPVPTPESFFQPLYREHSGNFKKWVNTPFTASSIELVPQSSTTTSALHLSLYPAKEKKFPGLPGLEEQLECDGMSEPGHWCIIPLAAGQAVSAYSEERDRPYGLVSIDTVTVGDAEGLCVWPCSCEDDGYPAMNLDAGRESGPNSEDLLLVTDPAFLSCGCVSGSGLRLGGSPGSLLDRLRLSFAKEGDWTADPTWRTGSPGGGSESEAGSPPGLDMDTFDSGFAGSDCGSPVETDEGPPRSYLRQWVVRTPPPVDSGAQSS

SMILES | Kd ([1]; Figure 5D legend, mutant experiment, analyte 12.5–800 µM, immobilized murine IL‐21R 20 nM) [µM] | Kd [1, 3] [µM] | body weight [2] | Kd ([1]; Figure S8D, salivaricin B mutant experiment, analyte 12.5-800, immobilized murine IL-21R 20 nM) [µM]
CC[C@H](C)[C@H](NC(=O)[C@@H](NC(=O)[C@H](C)NC(=O)[C@H](Cc1ccccc1)NC(=O)[C@H](Cc1c[nH]c2ccccc12)NC(=O)CNC(=O)[C@@H](NC(=O)CNC(=O)[C@H](CCCNC(=N)N)NC(=O)[C@@H](N)CCCCN)[C@@H](C)O)[C@@H](C)O)C(=O)N[C@H](C(=O)N[C@@H](CC(=O)O)C(=O)N[C@@H](CC(=O)O)C(=O)N[C@@H](CS)C(=O)N1CCC[C@H]1C(=O)N[C@@H](CC(N)=O)C(=O)N[C@@H](CO)C(=O)N[C@H](C(=O)N[C@@H](Cc1ccccc1)C(=O)N[C@H](C(=O)N[C@@H](CS)C(=O)N[C@@H](CS)C(=O)O)C(C)C)C(C)C)[C@@H](C)O [salivaricin A2] (H-KRGTGWFATITDDCPNSVFVCC-OH) | 29.4 | 12.6 | without affecting body weight | 
CC[C@H](C)[C@H](NC(=O)[C@@H](NC(=O)CNC(=O)CNC(=O)CN)C(C)C)C(=O)N[C@@H](CCC(N)=O)C(=O)N[C@H](C(=O)N[C@H](C(=O)N[C@@H](CO)C(=O)N[C@@H](Cc1c[nH]cn1)C(=O)N[C@@H](CCC(=O)O)C(=O)N[C@@H](CS)C(=O)N[C@@H](CCCNC(=N)N)C(=O)N[C@@H](CCSC)C(=O)N[C@@H](CC(N)=O)C(=O)N[C@@H](CO)C(=O)N[C@@H](Cc1c[nH]c2ccccc12)C(=O)N[C@@H](CCC(N)=O)C(=O)N[C@@H](Cc1ccccc1)C(=O)N[C@@H](CC(C)C)C(=O)N[C@@H](Cc1ccccc1)C(=O)N[C@H](C(=O)N[C@@H](CS)C(=O)N[C@@H](CS)C(=O)N[C@@H](CO)C(=O)O)[C@@H](C)O)[C@@H](C)CC)[C@@H](C)O [salivaricin B] (H-GGGVIQTISHECRMNSWQFLFTCCS-OH) |  | 10.1 | without affecting body weight | 12.6
